This is an account of results in patent US20090130171A1, “High concentration gentian violet containing medical devices and methods of making same” (priority 2007, published 2009).

Series [1] is classed as physicochemical. The conditions noted are these: 0.5 %. The procedure: Compounding Conditions for stable gentian violet:
Barrel Temperatures: • Zone 1-5=170° C. • Zone 6=175° C.,
Compounding Temperature for degraded gentian violet:
Compounding was performed with Sigma Aldrich ACS grade gentian violet, lot 016K3691. HPLC analysis was performed by cutting and measuring 1 cm segments of each formulation (n=3) using the method described in Examples I and II.
The chromatograms in FIGS. 5-10 show the stable gentian violet followed by the degraded gentian violet, at 588 nm, 253 nm, and 280 nm. The degradation peaks from the 217° C. sample are evident as the new peaks at 253 and 280 nm wavelengths. The chromatogram of the low processing temperature was identical to that of the Gentian Violet raw material.

Series [2] in a line: Decolorization of GV: photo-oxidation with H2O2 under UV light (Protocol 1). The format is physicochemical. Conditions: 0.1% GV in 3% H2O2 and agar stain. The procedure: (§1) Protocol 1. Photo-oxidation of GV with H2O2 • 1.1. 0.15 g GV (0.1% w/v) was dissolved in 150 ml 3% H2O2. The solution was exposed to UV light (Bio-lab hood) for 2 hours. 5 ml of solution was extracted out, in increments of 5 mins. • 1.2. 10 μl of 0.1% GV in DI water was spiked onto a plated agar plate. After staining of the agar plate (evaporation of most of the water from the spiked drop), H2O2 was pipetted onto the stain in increments of 50 μl every 5 mins for 2 hours, under the UV light. Protocol 2. Oxidation of GV by activation of H2O2 with Ag • 2.1. 10.6 mg of nano-particle Silver was mixed into 40 ml 3% H2O2 with constant stirring. 0.1% GV in water was added at various increments (10 μl-1 ml) until purple color persisted. Molar concentration ratios (GV:Ag) were calculated to determine the molar ratio where GV is no longer oxidized. • 2.2 10 μl of 0.1% GV in DI water was spiked onto a plated agar plate. After staining of the agar plate (evaporation of most of the water from the spiked drop), 0.009 g of Ag was applied to the surface of the stain and 100 μl of H2O2 was pipette onto the Ag. Protocol 3. Oxidation of GV by activation of H2O2 with Vitamin C 1% Vitamin C (w/v) was dissolved in 100 ml 3% H2O2. 7 g of TRIS buffer was also dissolved in the H2O2. 0.1% GV in water was added at increments of 10 μl until the purple color persisted.

Series [3] can be described thus: Decolorization of GV: activation of H2O2 with nano-particle silver (Protocol 2). The format is physicochemical. As for the experimental part:
as §1

A short description of series [4]: Decolorization of GV: activation of H2O2 with Vitamin C (Protocol 3). Format: physicochemical. The conditions noted are these: 1% Vitamin C in 3% H2O2, TRIS, pH 6-7, first 10 μl of 0.1% GV. The procedure:
as §1

Molecules are shown by their SMILES.

In the case of `CN(C)c1ccc(C(=C2C=CC(=[N+](C)C)C=C2)c2ccc(N(C)C)cc2)cc1` [gentian violet], the “processing temperature at which extruded gentian violet degrades” value in series [1] is 217 °C. Also, the “color change of GV” value in series [2] is listed as “No color change”. In addition, the “color change of GV solution” value in series [3] (0.1% GV pipetted into Ag + 3% H2O2 solution) is reported as “fade to a faint yellow color”. For the same compound, the “color change of GV stain on agar” value in series [3] (10 μl 0.1% GV stain, Ag + 100 μl H2O2) is “turn to a faint yellow color after 10 mins”. Also, the “color of solution after GV addition” value in series [4] is given as “remained purple”.
